# Target: T1, Cholesteryl ester transfer protein (Homo sapiens, UniProt P11597)
# T1 sequence (P11597 whole entry): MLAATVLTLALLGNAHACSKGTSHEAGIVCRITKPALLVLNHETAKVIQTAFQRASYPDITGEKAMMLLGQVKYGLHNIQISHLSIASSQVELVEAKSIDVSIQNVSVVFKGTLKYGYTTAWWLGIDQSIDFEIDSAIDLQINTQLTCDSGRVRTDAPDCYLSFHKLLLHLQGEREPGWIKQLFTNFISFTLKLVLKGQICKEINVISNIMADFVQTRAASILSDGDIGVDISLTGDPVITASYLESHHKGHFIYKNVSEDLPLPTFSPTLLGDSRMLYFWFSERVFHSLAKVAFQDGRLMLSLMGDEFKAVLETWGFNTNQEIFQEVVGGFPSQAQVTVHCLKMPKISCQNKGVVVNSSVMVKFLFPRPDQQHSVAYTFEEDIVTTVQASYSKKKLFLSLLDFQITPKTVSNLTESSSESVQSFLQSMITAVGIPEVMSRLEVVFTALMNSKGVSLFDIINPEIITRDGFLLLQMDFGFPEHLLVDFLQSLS
# Experiment: Inhibition of recombinant full length human CETP expressed in CHO cells assessed as reduction in BODIPY-CE transfer measured after 1 to 3 hrs by fluorescence assay
# Assay type: cell-based
row,IC50 [µM],SMILES
1,> 50,CCOC(=O)N1c2ccc(C(F)(F)F)cc2[C@@H](NC(=O)CC(=O)O[C@H]2CC[C@]3(C)[C@H]4CC=C5[C@@H]6CC(C)(C)CC[C@]6(C(=O)O)CC[C@@]5(C)[C@]4(C)CC[C@H]3C2(C)C)C[C@H]1CC
2,> 50,CCOC(=O)N1c2ccc(C(F)(F)F)cc2[C@@H](NC(=O)CCC(=O)O[C@H]2CC[C@]3(C)[C@H]4CC=C5[C@@H]6CC(C)(C)CC[C@]6(C(=O)O)CC[C@@]5(C)[C@]4(C)CC[C@H]3C2(C)C)C[C@H]1CC
3,> 50,CCOC(=O)N1c2ccc(C(F)(F)F)cc2[C@@H](NC(=O)CCCC(=O)O[C@H]2CC[C@]3(C)[C@H]4CC=C5[C@@H]6CC(C)(C)CC[C@]6(C(=O)O)CC[C@@]5(C)[C@]4(C)CC[C@H]3C2(C)C)C[C@H]1CC
4,0.28,CCOC(=O)N1c2ccc(C(F)(F)F)cc2[C@@H](NC(=O)CCC(=O)O[C@H]2CC[C@]3(C)[C@H]4CC=C5[C@@H]6[C@@H](C)[C@H](C)CC[C@]6(C(=O)O)CC[C@@]5(C)[C@]4(C)CC[C@H]3C2(C)C)C[C@H]1CC
5,4.42,CCOC(=O)N1c2ccc(C(F)(F)F)cc2[C@@H](NC(=O)CC(=O)O[C@H]2CC[C@]3(C)[C@H]4CC=C5[C@@H]6[C@@H](C)[C@H](C)CC[C@]6(C(=O)O)CC[C@@]5(C)[C@]4(C)CC[C@H]3C2(C)C)C[C@H]1CC
6,3.79,CCOC(=O)N1c2ccc(C(F)(F)F)cc2[C@@H](NC(=O)CCCC(=O)O[C@H]2CC[C@]3(C)[C@H]4CC=C5[C@@H]6[C@@H](C)[C@H](C)CC[C@]6(C(=O)O)CC[C@@]5(C)[C@]4(C)CC[C@H]3C2(C)C)C[C@H]1CC

# From ChEMBL document CHEMBL4002550, “Fragment-based discovery of novel pentacyclic triterpenoid derivatives as cholesteryl ester transfer protein inhibitors” (Eur J Med Chem, 2017)
